# Measurements as given in article PMC8286840, “Identifying SARS-CoV-2 antiviral compounds by screening for small molecule inhibitors of Nsp3 papain-like protease” (Biochemical Journal, 2021).
# Counter-ions that a name gives are not always drawn. Like-named read-outs stand apart in the source and are kept apart here.
# Legend:
# [1] = target: T1, SARS-CoV-2 PLpro (nsp3 1564–1878) (Severe acute respiratory syndrome coronavirus 2, UniProt P0DTD1); test: biochemical; set-up: FRET-quenched peptide (Pro3) cleavage by PLpro, 10 min pre-incubation, slope over 20 min, normalised to no-compound control; conditions: low concentration screen, read-out: % of control remaining
# [2] = target: T1, SARS-CoV-2 PLpro (nsp3 1564–1878); test: biochemical; set-up: FRET-quenched peptide (Pro3) cleavage by PLpro, 10 min pre-incubation, slope over 20 min, normalised to no-compound control; conditions: high concentration screen, read-out: % of control remaining
structure (smiles),measurement,setting,value
CC(C)[C@@]1(NC(=O)[C@@H]2C[C@@H]3c4cccc5[nH]cc(c45)C[C@H]3N(C)C2)O[C@@]2(O)[C@@H]3CCCN3C(=O)[C@H](Cc3ccccc3)N2C1=O [Dihydroergocristine],remaining activity at 1.25 µM,[1]; Well no.=2098,104%
same,remaining activity at 3.75 µM,[2]; Well no.=2098,102%
CN1C[C@H](C(=O)N[C@]2(C)O[C@@]3(O)[C@@H]4CCCN4C(=O)[C@H](Cc4ccccc4)N3C2=O)C[C@@H]2c3cccc4[nH]cc(c34)C[C@H]21 [Dihydroergotamine (mesylate)],remaining activity at 1.25 µM,[1]; Well no.=6947,92.6%
same,remaining activity at 3.75 µM,[2]; Well no.=6947,92.7%
CN1C[C@H](C(=O)N[C@]2(C)O[C@@]3(O)[C@@H]4CCCN4C(=O)[C@H](Cc4ccccc4)N3C2=O)C[C@@H]2c3cccc4[nH]cc(c34)C[C@H]21 [Dihydroergotamine mesylate],remaining activity at 1.25 µM,[1]; Well no.=1701,98.4%
same,remaining activity at 3.75 µM,[2]; Well no.=1701,98.9%
CN1C[C@H](C(=O)N[C@]2(C)O[C@@]3(O)[C@@H]4CCCN4C(=O)[C@H](Cc4ccccc4)N3C2=O)C[C@@H]2c3cccc4[nH]cc(c34)C[C@H]21 [Dihydroergotamine methanesulfonate],remaining activity at 1.25 µM,[1]; Well no.=543,102%
same,remaining activity at 3.75 µM,[2]; Well no.=543,104%
CC(C)[C@H]1CN[C@H](C(=O)O)[C@H]1CC(=O)O [Dihydrokainic acid],remaining activity at 1.25 µM,[1]; Well no.=635,93.4%
same,remaining activity at 3.75 µM,[2]; Well no.=635,94%
COC1=CC(=O)O[C@@H](CCc2ccc3c(c2)OCO3)C1 [Dihydromethysticin],remaining activity at 1.25 µM,[1]; Well no.=3303,100%
same,remaining activity at 3.75 µM,[2]; Well no.=3303,102%
C[C@@H]1O[C@@H](O[C@H]2C[C@@H](O)[C@]3(CO)[C@H]4[C@H](O)C[C@]5(C)[C@@H](C6COC(=O)C6)CC[C@]5(O)[C@@H]4CC[C@]3(O)C2)[C@H](O)[C@H](O)[C@H]1O (stereo partly shown) [Dihydroouabain],remaining activity at 1.25 µM,[1]; Well no.=539,91.5%
same,remaining activity at 3.75 µM,[2]; Well no.=539,93.8%
CCCCCCCCCCCCCCC[C@@H](O)[C@@H](N)CO [Dihydrosphingosine],remaining activity at 1.25 µM,[1]; Well no.=4399,101%
same,remaining activity at 3.75 µM,[2]; Well no.=4399,96.6%
CC1CNC(=O)NC1=O (stereo not shown) [Dihydrothymine],remaining activity at 1.25 µM,[1]; Well no.=8392,100%
same,remaining activity at 3.75 µM,[2]; Well no.=8392,92.8%
c1ccc2c(Cc3c[nH]c4ccccc34)c[nH]c2c1 [Diindolylmethane],remaining activity at 1.25 µM,[1]; Well no.=3516,102%
same,remaining activity at 1.25 µM,[1]; Well no.=4509,88.9%
same,remaining activity at 3.75 µM,[2]; Well no.=3516,104%
same,remaining activity at 3.75 µM,[2]; Well no.=4509,92.4%
COc1cc(C(=O)OCCCN2CCCN(CCCOC(=O)c3cc(OC)c(OC)c(OC)c3)CC2)cc(OC)c1OC [Dilazep hydrochloride],remaining activity at 1.25 µM,[1]; Well no.=595,103%
same,remaining activity at 3.75 µM,[2]; Well no.=595,106%
COc1cc(C(=O)OCCCN2CCCN(CCCOC(=O)c3cc(OC)c(OC)c(OC)c3)CC2)cc(OC)c1OC [Dilazep],remaining activity at 1.25 µM,[1]; Well no.=1931,100%
same,remaining activity at 3.75 µM,[2]; Well no.=1931,99.9%
COc1ccc([C@@H]2Sc3ccccc3N(CCN(C)C)C(=O)[C@@H]2OC(C)=O)cc1 [Diltiazem],remaining activity at 1.25 µM,[1]; Well no.=1713,104%
same,remaining activity at 3.75 µM,[2]; Well no.=1713,102%
Cc1ccc2c(c1)[C@]13CCCC[C@@H]1[C@H](C2)N(C)CC3 [Dimemorfan (phosphate)],remaining activity at 1.25 µM,[1]; Well no.=8523,106%
same,remaining activity at 3.75 µM,[2]; Well no.=8523,103%
O=S(=O)(O)CCSSCCS(=O)(=O)O [Dimesna],remaining activity at 1.25 µM,[1]; Well no.=5105,104%
same,remaining activity at 3.75 µM,[2]; Well no.=5105,105%
COC(=O)/C=C/C(=O)OC [Dimethyl Fumarate],remaining activity at 1.25 µM,[1]; Well no.=5294,93.6%
same,remaining activity at 3.75 µM,[2]; Well no.=5294,94.2%
CCc1cnn2c(NCc3ccc[n+]([O-])c3)cc(N3CCCC[C@H]3CCO)nc12 [Dinaciclib (SCH727965)],remaining activity at 1.25 µM,[1]; Well no.=5081,99.7%
same,remaining activity at 3.75 µM,[2]; Well no.=5081,105%
CCCCC[C@H](O)/C=C/[C@@H]1[C@@H](C/C=C\CCCC(=O)O)[C@@H](O)C[C@H]1O [Dinoprost (tromethamine salt)],remaining activity at 1.25 µM,[1]; Well no.=6475,104%
same,remaining activity at 3.75 µM,[2]; Well no.=6475,105%
CCCCC[C@H](O)/C=C/[C@@H]1[C@@H](C/C=C\CCCC(=O)O)[C@@H](O)C[C@H]1O [Dinoprost],remaining activity at 1.25 µM,[1]; Well no.=1667,99.9%
same,remaining activity at 3.75 µM,[2]; Well no.=1667,101%
C[C@@H]1CC[C@@]2(OC1)O[C@H]1C[C@H]3[C@@H]4CC=C5C[C@@H](O)CC[C@]5(C)[C@H]4CC[C@]3(C)[C@H]1[C@@H]2C [Diosgenin],remaining activity at 1.25 µM,[1]; Well no.=5192,96.6%
same,remaining activity at 3.75 µM,[2]; Well no.=5192,94.9%
COc1ccc(-c2cc(=O)c3c(O)cc(O)cc3o2)cc1O [Diosmetine],remaining activity at 1.25 µM,[1]; Well no.=3573,97.4%
same,remaining activity at 3.75 µM,[2]; Well no.=3573,97.7%
COc1ccc(-c2cc(=O)c3c(O)cc(O[C@@H]4O[C@H](CO[C@@H]5O[C@@H](C)[C@H](O)[C@@H](O)[C@H]5O)[C@@H](O)[C@H](O)[C@H]4O)cc3o2)cc1O [Diosmin],remaining activity at 1.25 µM,[1]; Well no.=3597,95.3%
same,remaining activity at 3.75 µM,[2]; Well no.=3597,97.4%
C[N+]1(C)CCC(=C(c2ccccc2)c2ccccc2)CC1 [Diphemanil Methylsulfate],remaining activity at 1.25 µM,[1]; Well no.=5118,109%
same,remaining activity at 3.75 µM,[2]; Well no.=5118,108%
OC(CCCN1CCCCC1)(c1ccccc1)c1ccccc1 [Diphenidol (hydrochloride)],remaining activity at 1.25 µM,[1]; Well no.=7621,102%
same,remaining activity at 3.75 µM,[2]; Well no.=7621,102%
Cc1cc(-c2ccc(N=Nc3c(S(=O)(=O)O)cc4cc(S(=O)(=O)O)cc(N)c4c3O)c(C)c2)ccc1N=Nc1c(S(=O)(=O)O)cc2cc(S(=O)(=O)O)cc(N)c2c1O [Diphenyl Blue],remaining activity at 1.25 µM,[1]; Well no.=7598,89.8%
same,remaining activity at 3.75 µM,[2]; Well no.=7598,89.2%
c1ccc2c(c1)[I+]c1ccccc1-2 [Diphenyleneiodonium chloride],remaining activity at 1.25 µM,[1]; Well no.=591,99.6%
same,remaining activity at 3.75 µM,[2]; Well no.=591,105%
CN1CCC(OC(c2ccccc2)c2ccccc2)CC1 [Diphenylpyraline (hydrochloride)],remaining activity at 1.25 µM,[1]; Well no.=6853,100%
same,remaining activity at 3.75 µM,[2]; Well no.=6853,102%
Cn1c(=O)c2c(ncn2CC(O)CO)n(C)c1=O (stereo not shown) [Diphylline],remaining activity at 1.25 µM,[1]; Well no.=7387,106%
same,remaining activity at 1.25 µM,[1]; Well no.=8273,101%
same,remaining activity at 3.75 µM,[2]; Well no.=7387,105%
same,remaining activity at 3.75 µM,[2]; Well no.=8273,98.7%
CCCN(CCC)CCc1ccc(O)c(O)c1 [Dipropyldopamine hydrobromide],remaining activity at 1.25 µM,[1]; Well no.=684,98.3%
same,remaining activity at 3.75 µM,[2]; Well no.=684,98.3%
CC[C@H](C)[C@H](N)C(=O)N1CCC[C@H]1C(=O)N[C@H](C(=O)O)[C@@H](C)CC [Diprotin A (TFA)],remaining activity at 1.25 µM,[1]; Well no.=8464,104%
same,remaining activity at 3.75 µM,[2]; Well no.=8464,101%
CC(C)=CCC[C@](C)(O)[C@H]1CC[C@]2(C)[C@@H]1CC[C@@H]1[C@@]3(C)CCC(=O)C(C)(C)[C@@H]3CC[C@]12C [Dipterocarpol],remaining activity at 1.25 µM,[1]; Well no.=3204,105%
same,remaining activity at 3.75 µM,[2]; Well no.=3204,106%
OCCN(CCO)c1nc(N2CCCCC2)c2nc(N(CCO)CCO)nc(N3CCCCC3)c2n1 [Dipyridamole],remaining activity at 1.25 µM,[1]; Well no.=682,103%
same,remaining activity at 1.25 µM,[1]; Well no.=1863,95.1%
same,remaining activity at 3.75 µM,[2]; Well no.=682,100%
same,remaining activity at 3.75 µM,[2]; Well no.=1863,94.7%
